Test system: not listed separately
Assay: In vitro liver microsomal stability assay, human
Format: in vitro ADME
Conditions: Human liver microsomes
Protocol: (§1) 1) Preparation of working solutions of test samples: The test samples were diluted with acetonitrile to 100 M.
(§2) 2) Preparation of a working solution of liver microsomes: liver microsomes were diluted with 100 mM phosphate-buffered saline to 0.56 mg/mL.
(§3) 3) Preparation of a working solution of reduced nicotinamide adenine dinucleotide (NADPH): A proper amount of NADPH was weighed out and diluted with phosphate-buffered saline to 20 mM, and an equal volume of a 60 mM MgCl2 solution was added.
(§4) 4) Preparation of a stop solution: Tolbutamide was diluted with acetonitrile to 20 ng/mL, serving as a stop solution containing an internal standard.
(§5) 1) Incubation anti-adsorption EP tubes were prepared and labeled with species, test/control sample, time points (0, 5, 10, 20, 30, 60 min, Blank60, and NCF60), etc.
(§6) 2) 2 L of test or control sample working solution, diluted with acetonitrile to 100 M, and 178 L of liver microsome working solution were added to each tube. For the Blank60 tube, 2 L of acetonitrile was added instead of a test sample. The tubes were pre-incubated in a 37° C. water bath for about 10 min, with each sample tested in triplicate.
(§7) 3) After the pre-incubation was complete, 20 L of NADPH working solution was added to each tube except for the 0 min and NCF60 tubes to start reactions, and 20 L of phosphate-buffered saline (containing 30 mM MgCl2) was added to the NCF60 tube. In the incubation system, the final concentrations of the test and control samples were 1 M, the final concentration of liver microsomes was 0.5 mg/mL, the final concentration of NADPH was 1 mM, and the final concentration of MgCl2 was 3 mM.
(§8) 4) For the 0 min sample, 600 L of stop solution was added before adding the NADPH working solution. After each sample was incubated for its respective time, 600 L of stop solution was added to stop the reaction.
(§9) 5) After the reaction was stopped, each sample was vortexed for 30 s and then centrifuged at 13,500 rpm for 10 min. 100 L of the supernatant was transferred to an EP tube, and 100 L Milli-Q water was added. The mixture was well mixed by vortexing and analyzed by LC-MS/MS.
(§10) 6) Testosterone and dextromethorphan were used as positive control samples under the same conditions to assess the stability and reliability of the system.
(§11) Parameters of the test samples, including their half-lives, intrinsic clearance rates in liver microsomes, and hepatic intrinsic clearance rates, were calculated based on the percentage of test sample remaining.

Compound | CLint scaled at 1 µM | T1/2 | half-life at 1 µM
C[C@@]1(O)CC[C@H]2[C@H](CC[C@@H]3[C@@H]2CC[C@]2(C)[C@@H](C(=O)Cn4cnn(CCOC(F)(F)F)c4=O)CC[C@@H]32)C1 [Compound 43] | 41 mL/min/kg | 0.512 h | –
C[C@@]1(O)CC[C@H]2[C@H](CC[C@@H]3[C@@H]2CC[C@]2(C)[C@@H](C(=O)Cn4cnn(-c5cc(F)cc(C#N)c5)c4=O)CC[C@@H]32)C1 [Compound 44] | 12 mL/min/kg | – | 1.7 h
C[C@@]1(O)CC[C@H]2[C@H](CC[C@@H]3[C@@H]2CC[C@]2(C)[C@@H](C(=O)Cn4cnn(-c5cccc(F)n5)c4=O)CC[C@@H]32)C1 [Compound 20] | 28 mL/min/kg | – | 1.18 h

Same assay, conditions: Human liver microsomes 0.5 mg/mL, NADPH

Compound | Remaining amount % at 60 min
C[C@@]1(O)CC[C@H]2[C@H](CC[C@@H]3[C@@H]2CC[C@]2(C)[C@@H](C(=O)Cn4cnn(CCOC(F)(F)F)c4=O)CC[C@@H]32)C1 [Compound 43] | 25.97%
C[C@@]1(O)CC[C@H]2[C@H](CC[C@@H]3[C@@H]2CC[C@]2(C)[C@@H](C(=O)Cn4cnn(-c5cc(F)cc(C#N)c5)c4=O)CC[C@@H]32)C1 [Compound 44] | 66.67%
C[C@@]1(O)CC[C@H]2[C@H](CC[C@@H]3[C@@H]2CC[C@]2(C)[C@@H](C(=O)Cn4cnn(-c5cccc(F)n5)c4=O)CC[C@@H]32)C1 [Compound 20] | 52.3%

Same assay, conditions: Human liver microsomes; read-out: CLint(mic)

Compound | microsomal CLint at 1 µM
C[C@@]1(O)CC[C@H]2[C@H](CC[C@@H]3[C@@H]2CC[C@]2(C)[C@@H](C(=O)Cn4cnn(CCOC(F)(F)F)c4=O)CC[C@@H]32)C1 [Compound 43] | 45 µL/min/mg
C[C@@]1(O)CC[C@H]2[C@H](CC[C@@H]3[C@@H]2CC[C@]2(C)[C@@H](C(=O)Cn4cnn(-c5cc(F)cc(C#N)c5)c4=O)CC[C@@H]32)C1 [Compound 44] | 14 µL/min/mg
C[C@@]1(O)CC[C@H]2[C@H](CC[C@@H]3[C@@H]2CC[C@]2(C)[C@@H](C(=O)Cn4cnn(-c5cccc(F)n5)c4=O)CC[C@@H]32)C1 [Compound 20] | 20 µL/min/mg

Target: T1, α4β3δ GABA receptors (α4β3δ-HEK-FlpIn-TRex stable cell strain) (Homo sapiens, UniProt P28472+P48169)
T1 construct: expressed in transfected cells
Assay: Whole-cell patch clamp, extrasynaptic functional activity (positive allosteric regulation of GABA-induced current)
Format: cell-based
Conditions: patch clamp -60 mV, GABA at EC10-20, α4β3δ-HEK-FlpIn-TRex cells
Protocol: (§12) The α4β3δ-HEK-FlpIn-TRex stable cell strain was cultured in DMEM+10% FBS complete culture medium, with the selective antibiotics being 10 μg/mL Blasticidin, 100 µg/mL Zeocin, 100 µg/mL Hygromycin, and 0.2 μg/mL Puromycin. The α1β2γ2-CHO-TRex stable cell strain was cultured in DMEM/F12+10% FBS complete culture medium, with the selective antibiotics being 10 μg/mL Blasticidin, 100 μg/mL Zeocin, 300 μg/mL Hygromycin, and […] Puromycin.
(§13) The day before the patch clamp experiment, cells were seeded onto 12 mm polylysine-coated coverslips and then cultured in 35 mm culture dishes, and tetracycline ([…]) was added to induce the expression of GABA receptors. The extracellular fluid had the following composition (in mM): 140 NaCl, 3 KCl, 1.5 MgCl2, 2 CaCl2, 10 HEPES, and 10 Glucose. After thorough mixing, NaOH was added to adjust the pH to 7.4, and sucrose was added to adjust the osmotic pressure to 300-320 mOsm. The fluid was stored at 4° C. The electrode internal solution had the following composition (in mM): 145 KCl, 1 MgCl2, 5 EGTA, 10 HEPES, and 5 MgATP. After thorough mixing, KOH was added to adjust the pH to 7.3, and sucrose was added to adjust the osmotic pressure to 290-300 mOsm. The solution was filtered through a […] before use.
(§14) Whole-cell patch clamp recording was mainly employed in this experiment. The membrane potential was clamped at −60 mV, and receptors were activated using GABA at an EC10-20 concentration ([…]). The test compounds were dissolved in 0.1% DMSO, and perfusion was performed for 30 s prior to GABA stimulation. Finally, the positive allosteric regulating effects of the test compounds on α1β2γ2 or α4β3δ were determined.
(§15) The experimental result for each concentration was expressed as a fold increase in the GABA-induced current caused by the compound. […] At least 5 concentrations are tested to obtain a complete EC50 curve and EC50 values. All experiments were repeated on no less than 3 cells, and data processing was completed using GraphPad prism software. The dose-response curves were fitted using the Hill equation, and the half-maximal activating concentration EC50 and Emax were finally obtained.

T1 sequence (P48169 36-554): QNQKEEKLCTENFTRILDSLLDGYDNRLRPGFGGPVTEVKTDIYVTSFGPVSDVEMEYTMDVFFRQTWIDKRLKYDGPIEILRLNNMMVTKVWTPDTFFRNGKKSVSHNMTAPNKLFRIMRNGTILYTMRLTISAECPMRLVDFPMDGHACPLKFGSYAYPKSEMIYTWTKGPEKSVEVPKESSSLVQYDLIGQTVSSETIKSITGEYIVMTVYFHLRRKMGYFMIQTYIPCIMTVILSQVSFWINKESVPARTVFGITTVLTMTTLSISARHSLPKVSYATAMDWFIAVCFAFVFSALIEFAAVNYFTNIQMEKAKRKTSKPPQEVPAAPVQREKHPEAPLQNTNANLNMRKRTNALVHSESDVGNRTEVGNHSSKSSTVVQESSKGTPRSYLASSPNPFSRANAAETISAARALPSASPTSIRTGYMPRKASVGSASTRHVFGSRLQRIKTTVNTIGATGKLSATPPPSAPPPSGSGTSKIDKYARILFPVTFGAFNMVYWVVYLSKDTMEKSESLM
T1 sequence (P28472 26-473): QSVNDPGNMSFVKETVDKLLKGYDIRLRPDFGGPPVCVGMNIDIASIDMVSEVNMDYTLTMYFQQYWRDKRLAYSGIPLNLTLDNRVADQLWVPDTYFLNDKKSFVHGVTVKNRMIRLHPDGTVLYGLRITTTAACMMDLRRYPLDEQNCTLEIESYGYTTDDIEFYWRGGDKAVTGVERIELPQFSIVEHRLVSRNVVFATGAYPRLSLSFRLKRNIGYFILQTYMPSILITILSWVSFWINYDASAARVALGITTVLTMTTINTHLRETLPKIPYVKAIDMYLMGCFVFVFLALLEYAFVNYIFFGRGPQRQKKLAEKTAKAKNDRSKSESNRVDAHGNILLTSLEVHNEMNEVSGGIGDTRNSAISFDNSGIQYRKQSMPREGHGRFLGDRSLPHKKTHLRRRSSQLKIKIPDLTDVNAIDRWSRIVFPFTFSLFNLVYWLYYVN
T1 sequence (O14764 25-452 partner): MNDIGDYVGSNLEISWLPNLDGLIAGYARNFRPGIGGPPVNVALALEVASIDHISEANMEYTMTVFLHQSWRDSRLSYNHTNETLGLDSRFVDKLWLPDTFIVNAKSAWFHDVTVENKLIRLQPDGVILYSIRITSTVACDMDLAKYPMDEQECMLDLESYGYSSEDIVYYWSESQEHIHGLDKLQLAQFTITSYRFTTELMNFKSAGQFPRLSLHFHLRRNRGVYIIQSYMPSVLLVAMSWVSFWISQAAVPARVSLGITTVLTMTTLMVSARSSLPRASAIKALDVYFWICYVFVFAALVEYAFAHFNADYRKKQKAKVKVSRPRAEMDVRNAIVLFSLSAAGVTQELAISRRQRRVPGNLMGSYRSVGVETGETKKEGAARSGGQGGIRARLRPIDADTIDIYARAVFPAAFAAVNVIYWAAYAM

Compound | Emax | EC50
C[C@@]1(O)CC[C@H]2[C@H](CC[C@@H]3[C@@H]2CC[C@]2(C)[C@@H](C(=O)Cn4cnn(CCOC(F)(F)F)c4=O)CC[C@@H]32)C1 [Compound 43] | 889% | –
C[C@@]1(O)CC[C@H]2[C@H](CC[C@@H]3[C@@H]2CC[C@]2(C)[C@@H](C(=O)Cn4cnn(-c5cc(F)cc(C#N)c5)c4=O)CC[C@@H]32)C1 [Compound 44] | 546% | –
C[C@@]1(O)CC[C@H]2[C@H](CC[C@@H]3[C@@H]2CC[C@]2(C)[C@@H](C(=O)Cn4cnn(-c5cccc(F)n5)c4=O)CC[C@@H]32)C1 [Compound 20] | 966% | 360 nM

Target: T2, α1β2γ2 GABA receptors (α1β2γ2-CHO-TRex stable cell strain) (Homo sapiens, UniProt P14867+P47870)
T2 construct: expressed in transfected cells
Assay: Whole-cell patch clamp, intrasynaptic functional activity (positive allosteric regulation of GABA-induced current)
Format: cell-based
Conditions: patch clamp -60 mV, GABA at EC10-20, α1β2γ2-CHO-TRex cells
Protocol: as §12, §13, §14, §15

T2 sequence (P14867 28-456): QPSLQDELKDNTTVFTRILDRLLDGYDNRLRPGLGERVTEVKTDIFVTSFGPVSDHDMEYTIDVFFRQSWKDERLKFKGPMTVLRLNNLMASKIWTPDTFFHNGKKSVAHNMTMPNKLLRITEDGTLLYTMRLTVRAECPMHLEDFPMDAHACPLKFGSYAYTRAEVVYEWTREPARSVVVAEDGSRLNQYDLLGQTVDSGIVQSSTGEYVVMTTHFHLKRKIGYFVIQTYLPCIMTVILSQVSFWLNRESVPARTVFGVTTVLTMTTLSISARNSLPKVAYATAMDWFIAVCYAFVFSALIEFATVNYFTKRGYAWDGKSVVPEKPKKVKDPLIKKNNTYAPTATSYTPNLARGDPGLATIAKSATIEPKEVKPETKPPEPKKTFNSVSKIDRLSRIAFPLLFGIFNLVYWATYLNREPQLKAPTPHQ
T2 sequence (P47870 25-512 limits assumed): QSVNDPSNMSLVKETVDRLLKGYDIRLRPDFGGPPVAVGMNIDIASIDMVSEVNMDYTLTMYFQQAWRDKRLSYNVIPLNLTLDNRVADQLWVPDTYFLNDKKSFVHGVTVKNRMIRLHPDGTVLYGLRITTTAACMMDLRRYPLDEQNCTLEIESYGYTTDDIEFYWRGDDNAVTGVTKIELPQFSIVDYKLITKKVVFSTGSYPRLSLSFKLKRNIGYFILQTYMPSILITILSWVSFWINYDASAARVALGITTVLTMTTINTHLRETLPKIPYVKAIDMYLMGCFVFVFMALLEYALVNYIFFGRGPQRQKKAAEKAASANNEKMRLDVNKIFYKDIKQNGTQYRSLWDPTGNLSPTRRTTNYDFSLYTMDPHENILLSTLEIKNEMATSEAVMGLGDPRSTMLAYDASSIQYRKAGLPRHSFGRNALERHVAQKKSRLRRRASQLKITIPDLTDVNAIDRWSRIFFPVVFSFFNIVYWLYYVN
T2 sequence (P18507 40-475 partner): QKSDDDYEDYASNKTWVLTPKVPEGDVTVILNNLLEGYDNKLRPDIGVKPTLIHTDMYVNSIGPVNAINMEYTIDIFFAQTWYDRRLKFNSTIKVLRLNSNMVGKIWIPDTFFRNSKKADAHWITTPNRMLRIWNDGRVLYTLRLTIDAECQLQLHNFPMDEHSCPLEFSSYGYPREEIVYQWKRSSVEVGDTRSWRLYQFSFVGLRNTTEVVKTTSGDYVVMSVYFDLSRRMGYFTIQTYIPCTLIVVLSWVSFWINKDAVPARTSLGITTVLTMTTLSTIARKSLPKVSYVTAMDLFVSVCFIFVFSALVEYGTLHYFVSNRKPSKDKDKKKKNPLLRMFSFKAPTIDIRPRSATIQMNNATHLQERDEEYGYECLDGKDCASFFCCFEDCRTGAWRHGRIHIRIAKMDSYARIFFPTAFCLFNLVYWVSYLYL

Compound | Emax | EC50
C[C@@]1(O)CC[C@H]2[C@H](CC[C@@H]3[C@@H]2CC[C@]2(C)[C@@H](C(=O)Cn4cnn(CCOC(F)(F)F)c4=O)CC[C@@H]32)C1 [Compound 43] | 576% | –
C[C@@]1(O)CC[C@H]2[C@H](CC[C@@H]3[C@@H]2CC[C@]2(C)[C@@H](C(=O)Cn4cnn(-c5cc(F)cc(C#N)c5)c4=O)CC[C@@H]32)C1 [Compound 44] | 518% | –
C[C@@]1(O)CC[C@H]2[C@H](CC[C@@H]3[C@@H]2CC[C@]2(C)[C@@H](C(=O)Cn4cnn(-c5cccc(F)n5)c4=O)CC[C@@H]32)C1 [Compound 20] | 724% | 368 nM

Test system: not listed separately
Assay: In vitro liver microsomal stability assay, rat
Format: in vitro ADME
Conditions: Rat liver microsomes
Protocol: as §1, §2, §3, §4, §5, §6, §7, §8, §9, §10, §11

Compound | CLint scaled at 1 µM | T1/2 | half-life at 1 µM
C[C@@]1(O)CC[C@H]2[C@H](CC[C@@H]3[C@@H]2CC[C@]2(C)[C@@H](C(=O)Cn4cnn(CCOC(F)(F)F)c4=O)CC[C@@H]32)C1 [Compound 43] | 108 mL/min/kg | 0.383 h | –
C[C@@]1(O)CC[C@H]2[C@H](CC[C@@H]3[C@@H]2CC[C@]2(C)[C@@H](C(=O)Cn4cnn(-c5cc(F)cc(C#N)c5)c4=O)CC[C@@H]32)C1 [Compound 44] | 27 mL/min/kg | – | 1.56 h
C[C@@]1(O)CC[C@H]2[C@H](CC[C@@H]3[C@@H]2CC[C@]2(C)[C@@H](C(=O)Cn4cnn(-c5cccc(F)n5)c4=O)CC[C@@H]32)C1 [Compound 20] | 320 mL/min/kg | – | 0.13 h

Same assay, conditions: Rat liver microsomes 0.5 mg/mL, NADPH

Compound | Remaining amount % at 60 min
C[C@@]1(O)CC[C@H]2[C@H](CC[C@@H]3[C@@H]2CC[C@]2(C)[C@@H](C(=O)Cn4cnn(CCOC(F)(F)F)c4=O)CC[C@@H]32)C1 [Compound 43] | 15.74%
C[C@@]1(O)CC[C@H]2[C@H](CC[C@@H]3[C@@H]2CC[C@]2(C)[C@@H](C(=O)Cn4cnn(-c5cc(F)cc(C#N)c5)c4=O)CC[C@@H]32)C1 [Compound 44] | 64.82%
C[C@@]1(O)CC[C@H]2[C@H](CC[C@@H]3[C@@H]2CC[C@]2(C)[C@@H](C(=O)Cn4cnn(-c5cccc(F)n5)c4=O)CC[C@@H]32)C1 [Compound 20] | 8.40%

Same assay, conditions: Rat liver microsomes; read-out: CLint(mic)

Compound | microsomal CLint at 1 µM
C[C@@]1(O)CC[C@H]2[C@H](CC[C@@H]3[C@@H]2CC[C@]2(C)[C@@H](C(=O)Cn4cnn(CCOC(F)(F)F)c4=O)CC[C@@H]32)C1 [Compound 43] | 60 µL/min/mg
C[C@@]1(O)CC[C@H]2[C@H](CC[C@@H]3[C@@H]2CC[C@]2(C)[C@@H](C(=O)Cn4cnn(-c5cc(F)cc(C#N)c5)c4=O)CC[C@@H]32)C1 [Compound 44] | 15 µL/min/mg
C[C@@]1(O)CC[C@H]2[C@H](CC[C@@H]3[C@@H]2CC[C@]2(C)[C@@H](C(=O)Cn4cnn(-c5cccc(F)n5)c4=O)CC[C@@H]32)C1 [Compound 20] | 178 µL/min/mg

Reference: US20250368678A1, “19-NOR-C3,3-DISUBSTITUTED C21-AZACYCLO-S[…] AND METHOD FOR USING SAME” (SHANDONG LUYE PHARMACEUTICAL CO., LTD., priority 2022, published 2025)
